Source: patent EP4818191A1, “PEPTIDE AND CONJUGATE CONTAINING SAID PEPTIDE” (PeptiDream Inc., priority 2023, dated 2025)

Biological target: T1, human CA9 (Homo sapiens, UniProt Q16790)
T1 construct: purchased SinoBiological
Assay: Intermolecular interaction against human CA9 by surface plasmon resonance (SPR)
Assay type: binding
Details: Human CA9-Fc captured on Protein A sensor chip, Single Cycle Kinetics, KD values only in Tables 7, 8 (images)
Experimental: The intermolecular interactions of the peptides against human CA9 protein were examined by surface plasmon resonance (SPR) for the various peptides or conjugates synthesized in Examples 1 and 2, according to the methods described below. Specific test methods are described below.
Protein A sensor chip (Cytiva) was inserted into BiacoreT200 (Cytiva) and primed with running buffer: 1× HBS-P+ (Cytiva), 1.0 % DMSO (Fujifilm Wako Pure Chemical Corporation), and 50 µM zinc acetate dihydrate (Hampton research), and equilibrated at a flow rate of 30 µL/min. 50 nM Human CA9-Fc (SinoBiological) diluted with running buffer was reacted at a flow rate of 5 µL/min for 60 seconds and captured into a flow cell.
A solution containing each peptide or conjugate synthesized in Example 1 or 2 and prepared at 1 mM in DMSO solution was diluted with running buffer to a final concentration of 100 nM. Then, the peptide or conjugate solutions at 25 nM and 5 nM were further prepared. Depending on the affinity of the peptide or conjugate, the solution was diluted with running buffer to a final concentration of 40 nM. […]
Using the above samples, the kinetics of each peptide or conjugate against human CA9 was obtained by SPR measurement. […] The binding of each peptide or conjugate to human CA9 was evaluated by performing least-squares curve fitting on the obtained sensorgram to calculate the KD value.

In the case of “C1Ac-da-Tbg-3Py6CON-Hgl-Meda-Ahp-PeG-S-3Py6NH2-HseMe-dk-Y-MeC [SEQ ID No. 45]”, the “activity of binding to human CA9 (CA9 binding ability)” value is reported as “possesses CA9 binding ability”.
